Test results: ChEMBL document CHEMBL1201862, “PubChem BioAssay data set” (2004)
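A five-concentration, 48-hour dose response in 96-well plates underlies each endpoint, interpolated linearly between surrounding concentrations. GI50 marks 50% less growth.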 The source made the active and inactive calls. Cut-off read from the data, not from the text of the source: active = GI50 up to about 1.1 µM and inactive = higher.

Experiments:
Assay in all cases: NCI-60 cell line screen, 48 h
ACHN = test system: ACHN
CAKI-1 = test system: CAKI-1
HCT-116 = test system: HCT-116
HCT-15 = test system: HCT-15
HT-29 = test system: HT-29
KM12 = test system: KM12
LOX IMVI = test system: LOX IMVI
MOLT-4 = test system: MOLT-4
NCI-H23 = test system: NCI-H23
OVCAR-5 = test system: OVCAR-5
OVCAR-8 = test system: OVCAR-8
PC-3 = test system: PC-3
RPMI-8226 = test system: RPMI-8226
SF-295 = test system: SF-295
SK-OV-3 = test system: SK-OV-3
SN12C = test system: SN12C
SNB-19 = test system: SNB-19
SR = test system: SR
TK-10 = test system: TK-10
SNB-75 = test system: SNB-75

Row | SMILES | GI50 (ACHN) | GI50 (CAKI-1) | GI50 (HCT-116) | GI50 (HCT-15) [µM] | GI50 (HT-29) | GI50 (KM12) | GI50 (LOX IMVI) | GI50 (MOLT-4) | GI50 (NCI-H23) | GI50 (OVCAR-5) | GI50 (OVCAR-8) | GI50 (PC-3) | GI50 (RPMI-8226) | GI50 (SF-295) | GI50 (SK-OV-3) | GI50 (SN12C) | GI50 (SNB-19) | GI50 (SR) | GI50 (TK-10) | GI50 (SNB-75)
1 | O=C(/C=c1\oc(=O)/c(=C/C(=O)c2ccc(Cl)cc2)oc1=O)c1ccc(Cl)cc1 | > 100 µM (inactive) | > 100 µM (inactive) | > 100 µM (inactive) | 98.2 | > 100 µM (inactive) | > 100 µM (inactive) | 48.4 µM (inactive) | 23.8 µM (inactive) | > 100 µM (inactive) | > 100 µM (inactive) | > 100 µM (inactive) | > 100 µM (inactive) | > 100 µM (inactive) | > 100 µM (inactive) | > 100 µM (inactive) | > 100 µM (inactive) | > 100 µM (inactive) | 52.6 µM (inactive) | > 100 µM (inactive) | –
2 | c1ccc2c3c(ccc2c1)CSCc1ccc2ccccc2c1-3 | > 100 µM (inactive) | > 100 µM (inactive) | > 100 µM (inactive) | > 100 | > 100 µM (inactive) | > 100 µM (inactive) | > 100 µM (inactive) | 36.6 µM (inactive) | > 100 µM (inactive) | > 100 µM (inactive) | > 100 µM (inactive) | > 100 µM (inactive) | > 100 µM (inactive) | > 100 µM (inactive) | – | > 100 µM (inactive) | > 100 µM (inactive) | 33 µM (inactive) | > 100 µM (inactive) | > 100 µM (inactive)
3 | CCOC(=O)c1ncn(CCc2ccc(Cl)cc2)c1C | > 100 µM (inactive) | 80.2 µM (inactive) | > 100 µM (inactive) | > 100 | > 100 µM (inactive) | > 100 µM (inactive) | > 100 µM (inactive) | > 100 µM (inactive) | > 100 µM (inactive) | > 100 µM (inactive) | > 100 µM (inactive) | > 100 µM (inactive) | 62.7 µM (inactive) | 70.8 µM (inactive) | – | > 100 µM (inactive) | > 100 µM (inactive) | 68.2 µM (inactive) | > 100 µM (inactive) | –
4 | NC(=O)c1cc(-c2ccc(-n3ccnc3)cc2)nnc1O | > 100 µM (inactive) | > 100 µM (inactive) | > 100 µM (inactive) | > 100 | – | – | – | > 100 µM (inactive) | > 100 µM (inactive) | > 100 µM (inactive) | > 100 µM (inactive) | > 100 µM (inactive) | > 100 µM (inactive) | – | > 100 µM (inactive) | > 100 µM (inactive) | > 100 µM (inactive) | > 100 µM (inactive) | > 100 µM (inactive) | > 100 µM (inactive)
5 | COc1ccc(C2CC(c3ccc4ccccc4c3O)=NN2)cc1OC (stereo unspecified) | 54.5 µM (inactive) | > 100 µM (inactive) | 38.6 µM (inactive) | 41.7 | 47.5 µM (inactive) | 48.4 µM (inactive) | – | 24.7 µM (inactive) | 49.9 µM (inactive) | > 100 µM (inactive) | 43.6 µM (inactive) | 33.9 µM (inactive) | 30.4 µM (inactive) | 44.8 µM (inactive) | > 100 µM (inactive) | 48.6 µM (inactive) | – | 15.6 µM (inactive) | 95.1 µM (inactive) | 56.4 µM (inactive)
6 | O=C(NC(=S)Nc1ccc2c(c1)Sc1ccccc1O2)c1ccc([N+](=O)[O-])cc1 | > 100 µM (inactive) | > 100 µM (inactive) | > 100 µM (inactive) | > 100 | > 100 µM (inactive) | > 100 µM (inactive) | > 100 µM (inactive) | – | > 100 µM (inactive) | > 100 µM (inactive) | > 100 µM (inactive) | > 100 µM (inactive) | > 100 µM (inactive) | > 100 µM (inactive) | > 100 µM (inactive) | > 100 µM (inactive) | > 100 µM (inactive) | > 100 µM (inactive) | > 100 µM (inactive) | > 100 µM (inactive)
7 | CC(=O)OCC(C)C1=C(O)C(=O)C2(C)C/C=C(/C)CC/C=C(\C)CCC(O)C(C)CCC12 (stereo unspecified) | 16.7 µM (inactive) | 17.3 µM (inactive) | 18.8 µM (inactive) | 17.6 | 17.3 µM (inactive) | 14.2 µM (inactive) | 18.1 µM (inactive) | 10 µM (inactive) | 17.8 µM (inactive) | 17.3 µM (inactive) | 18.1 µM (inactive) | 15.3 µM (inactive) | 11.9 µM (inactive) | 15.6 µM (inactive) | – | 19 µM (inactive) | 18.4 µM (inactive) | 7.89 µM (inactive) | 19.6 µM (inactive) | 16.2 µM (inactive)
8 | O=C1C2=Cc3ccccc3OC2(O)Oc2ccccc21 (stereo unspecified) | – | > 100 µM (inactive) | > 100 µM (inactive) | > 100 | > 100 µM (inactive) | > 100 µM (inactive) | > 100 µM (inactive) | > 100 µM (inactive) | > 100 µM (inactive) | > 100 µM (inactive) | > 100 µM (inactive) | > 100 µM (inactive) | > 100 µM (inactive) | > 100 µM (inactive) | > 100 µM (inactive) | > 100 µM (inactive) | – | > 100 µM (inactive) | > 100 µM (inactive) | 52.2 µM (inactive)
9 | C=C(C)C(=O)O[C@H]1[C@H]2[C@H](OC(=O)[C@H]2C)[C@H](O)[C@@H](C)[C@@H]2C=CC(=O)[C@]21C | 4.11 µM (inactive) | 2.55 µM (inactive) | 2.32 µM (inactive) | 2.04 | 3.33 µM (inactive) | 2.51 µM (inactive) | 2.62 µM (inactive) | 3 µM (inactive) | 3.71 µM (inactive) | 8.61 µM (inactive) | 1.94 µM (inactive) | 4.51 µM (inactive) | 2.85 µM (inactive) | 4.63 µM (inactive) | 5.9 µM (inactive) | 2.08 µM (inactive) | 4.93 µM (inactive) | 1.73 µM (inactive) | 2.82 µM (inactive) | –
10 | CN(C(=O)c1ccccc1)C1CCCC(=O)CC1 (stereo unspecified) | > 100 µM (inactive) | > 100 µM (inactive) | > 100 µM (inactive) | > 100 | > 100 µM (inactive) | > 100 µM (inactive) | > 100 µM (inactive) | – | > 100 µM (inactive) | > 100 µM (inactive) | > 100 µM (inactive) | > 100 µM (inactive) | > 100 µM (inactive) | > 100 µM (inactive) | > 100 µM (inactive) | > 100 µM (inactive) | > 100 µM (inactive) | > 100 µM (inactive) | > 100 µM (inactive) | > 100 µM (inactive)
11 | O=C(C#Cc1cn(C2CC(O)C(CO)O2)c(=O)[nH]c1=O)c1ccccc1 (stereo unspecified) | 83.4 µM (inactive) | > 100 µM (inactive) | 42.5 µM (inactive) | > 100 | > 100 µM (inactive) | > 100 µM (inactive) | 49.8 µM (inactive) | – | > 100 µM (inactive) | – | > 100 µM (inactive) | > 100 µM (inactive) | 44 µM (inactive) | > 100 µM (inactive) | > 100 µM (inactive) | 31.8 µM (inactive) | > 100 µM (inactive) | 24.8 µM (inactive) | > 100 µM (inactive) | > 100 µM (inactive)
12 | CCC(C)C(NC(=O)C(CCCCN)NC(=O)C(NC(=O)C(CCC(N)=O)NC(=O)C(CCCNC(=N)N)NC(C)=O)C(C)CC)C(=O)NC(Cc1c[nH]c2ccccc12)C(=O)NC(Cc1ccccc1)C(=O)NC(CCC(N)=O)C(=O)NC(CC(N)=O)C(=O)NC(CCCNC(=N)N)C(=O)NC(CCCNC(=N)N)C(=O)NC(CCSC)C(=O)NC(CCCCN)C(=O)NC(Cc1c[nH]c2ccccc12)C(=O)NC(CCCCN)C(=O)NC(CCCCN)C(N)=O (stereo unspecified) | > 50 µM (inactive) | 35.5 µM (inactive) | > 50 µM (inactive) | > 50 | > 50 µM (inactive) | 14.5 µM (inactive) | > 50 µM (inactive) | > 50 µM (inactive) | > 50 µM (inactive) | 11.1 µM (inactive) | 49.2 µM (inactive) | > 50 µM (inactive) | 11.2 µM (inactive) | > 50 µM (inactive) | 31.7 µM (inactive) | 16.5 µM (inactive) | > 50 µM (inactive) | > 50 µM (inactive) | > 50 µM (inactive) | –
13 | CC(=O)OC1CC2c3cccc4c3C(CC2N(C)C1=O)CN4C(=O)c1ccccc1 (stereo unspecified) | 20 µM (inactive) | 23 µM (inactive) | 17 µM (inactive) | 14.5 | 17.9 µM (inactive) | 21.3 µM (inactive) | 12.1 µM (inactive) | 20.9 µM (inactive) | 16.6 µM (inactive) | 32.4 µM (inactive) | 16.4 µM (inactive) | 20.2 µM (inactive) | 26.6 µM (inactive) | 23.2 µM (inactive) | 22.7 µM (inactive) | 18.8 µM (inactive) | 30.3 µM (inactive) | 22.5 µM (inactive) | 29.8 µM (inactive) | –
14 | CCOP(=O)(OCC)C1C(CO)OC(n2ccc(=O)[nH]c2=O)C1O (stereo unspecified) | > 100 µM (inactive) | > 100 µM (inactive) | > 100 µM (inactive) | > 100 | > 100 µM (inactive) | > 100 µM (inactive) | > 100 µM (inactive) | > 10 µM (inactive) | – | – | > 100 µM (inactive) | > 100 µM (inactive) | > 100 µM (inactive) | > 100 µM (inactive) | – | > 100 µM (inactive) | > 100 µM (inactive) | > 100 µM (inactive) | > 100 µM (inactive) | 35.9 µM (inactive)
15 | COc1ccc(OCc2ccc3nc(-c4ccccc4)c(Cl)nc3c2)cc1 | 27.9 µM (inactive) | 22.3 µM (inactive) | 19.2 µM (inactive) | 50.7 | 76.7 µM (inactive) | > 100 µM (inactive) | 84.5 µM (inactive) | 34.4 µM (inactive) | 19 µM (inactive) | 32.1 µM (inactive) | 44.7 µM (inactive) | 40.9 µM (inactive) | 9.93 µM (inactive) | 21.7 µM (inactive) | – | 24.3 µM (inactive) | 26.5 µM (inactive) | 28.2 µM (inactive) | 17.7 µM (inactive) | 36 µM (inactive)
